Experimental findings from patent US6579892B1, “Triazole compounds with dopamine-D3-receptor affinity” (Abbott Laboratories, priority 1999, dated 2003) are described below.

Counter-ions that a name gives are not always drawn.

The target in one data set is T1, Cloned human D3-receptor (Homo sapiens, UniProt P35462).
T1 construct: host or cells: CCL 1,3 mouse fibroblasts
Put plainly: D3 binding test (125iodosulpiride displacement). The settings on record: negative logarithm of Ki (D3) [M]. The protocol:
Cloned human D3-receptor-expressing CCL 1,3 mouse fibroblasts, obtainable from Res. Biochemicals Internat. One Strathmore Rd., Natick, Mass. 01760-2418 USA, were used for the binding studies.
The D3-expressing cells were multiplied in RPMI-1640 containing 10% fetal calf serum (GIBCO No. 041-32400 N); 100 U of penicillin/ml and 0.2% streptomycin (GIBO BRL, Gaithersburg, Md., USA). After 48 h, the cells were washed with PBS and incubated for 5 min with 0.05% trypsin-containing PBS. After that, the mixture was neutralized with medium and the cells were collected by centrifuging at 300 g. In order to lyse the cells, the pellet was washed briefly with lysis buffer (5 mM Tris-HCl, pH 7.4, containing 10% glycerol) and after that incubated, at 4° C. for 30 min, at a concentration of 10^7 cells/ml of lysis buffer. The cells were centrifuged at 200 g for 10 min and the pellet was stored in liquid nitrogen.
For the D3-receptor binding test, the membranes were suspended in incubation buffer (50 mM Tris-HCl, pH 7.4, containing 120 mM NaCl, 5 mM KCl, 2 mM CaCl2, 2 mM MgCl2, 10 μM quinolinol, 0.1% ascorbic acid and 0.1% BSA), at a concentration of approx. 10^6 cells/250 μl of test mixture, and incubated at 30° C. […] 0.1 nM ^125iodosulpiride in the presence and absence of the test substance. The nonspecific binding was determined using 10^−6 M spiperone.
After 60 min, the free radioligand and the bound radioligand were separated by filtering through GF/B glass fiber filters (Whatman, England) on a Skatron cell harvester (Skatron, Lier, Norway), and the filters were washed with ice-cold Tris-HCl buffer, pH-7.4. The radioactivity which had collected on the filters was quantified using a Packard 2200 CA liquid scintillation counter.
The Ki values were determined by means of nonlinear regression analysis using the LIGAND program.

Data set [1] addresses T2, human dopamine D2A receptors (Homo sapiens, UniProt P14416).
T2 construct: expressed in transfected cells; host or cells: HEK-293
Put plainly: D2 binding test (low affinity state, 125I-spiperone). The settings on record: ratio Ki(D2)/Ki(D3). On the procedure:
All the media contained 100 units of penicillin […] and 100 μg/ml of streptomycin/ml. The cells were maintained at 37° C. in a moist atmosphere containing 5% CO2.
The cells were prepared for the binding studies by trypsinizing them (0.05% solution of trypsin) at room temperature for 3-5 minutes. After that, the cells were centrifuged at 250 g for 10 minutes and treated with lysis buffer (5 mM Tris-HCl, 10% glycerol, pH 7.4) at 4° C. for 30 minutes. After centrifuging at 250 g for 10 minutes, the residue was stored at −20° C. until used.
Low affinity state dopamine D2 receptor using ^125I-spiperone (81 TBq/mmol, Du Pont de Nemours, Dreieich)
The test mixtures (1 ml) consisted of 1×10^5 cells in incubation buffer (50 mM Tris, 120 mM NaCl, 5 mM KCl, 2 mM MgCl2 and 2 mM CaCl2, pH 7.4 with HCl) and […] ^125I-spiperone (total binding) or additionally 1 μM haloperidol (nonspecific binding) or test substance.
After the test mixtures had been incubated at 25° C. for 60 minutes, they were filtered through GM/B glass filters (Whatman, England) on a Skatron cell harvester (from Zinsser, Frankfurt), and the filters were washed with ice-cold 50 mM Tris-HCl buffer, pH 7.4. The radioactivity which had collected on the filters was quantified using a Packard 2200 CA liquid scintillation counter.
The results were evaluated as described in a).
The Ki values were determined by way of nonlinear regression analysis using the LIGAND program or by converting the IC50 values using the Cheng and Prusoff formula.

The melting point is the temperature, or range, at which the solid turns liquid.

T2 sequence (P14416 whole entry): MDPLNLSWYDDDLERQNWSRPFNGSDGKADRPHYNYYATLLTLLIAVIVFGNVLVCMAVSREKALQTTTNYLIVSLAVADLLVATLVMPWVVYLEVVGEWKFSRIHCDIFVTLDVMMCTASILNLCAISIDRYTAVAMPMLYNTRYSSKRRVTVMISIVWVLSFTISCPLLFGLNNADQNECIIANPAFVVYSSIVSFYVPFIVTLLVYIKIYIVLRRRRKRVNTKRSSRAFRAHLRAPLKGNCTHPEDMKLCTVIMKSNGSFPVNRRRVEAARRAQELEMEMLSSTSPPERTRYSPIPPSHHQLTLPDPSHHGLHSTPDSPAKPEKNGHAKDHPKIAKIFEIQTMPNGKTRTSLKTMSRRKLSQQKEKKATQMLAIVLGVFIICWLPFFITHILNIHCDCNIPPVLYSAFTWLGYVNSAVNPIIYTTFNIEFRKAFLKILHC
T1 sequence (P35462 whole entry): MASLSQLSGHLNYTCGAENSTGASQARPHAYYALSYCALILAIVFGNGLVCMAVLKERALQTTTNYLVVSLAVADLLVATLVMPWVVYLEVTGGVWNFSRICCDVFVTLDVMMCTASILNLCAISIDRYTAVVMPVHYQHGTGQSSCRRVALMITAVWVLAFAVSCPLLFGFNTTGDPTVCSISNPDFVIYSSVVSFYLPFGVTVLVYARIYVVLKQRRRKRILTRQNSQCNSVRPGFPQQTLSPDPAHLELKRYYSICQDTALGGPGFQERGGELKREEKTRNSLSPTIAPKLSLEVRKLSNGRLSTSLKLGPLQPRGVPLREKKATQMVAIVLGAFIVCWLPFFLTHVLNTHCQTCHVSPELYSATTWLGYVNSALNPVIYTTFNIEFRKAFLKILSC

Consider `Cl.Cn1c(SCCCNCC2CCc3cc(Br)ccc3C2)nnc1-c1ccccc1` (stereo not drawn), for which the melting point was 88 °C (dec.).
`Cc1ncsc1-c1nnc(SCCCNCCCC2CCc3ccc(F)cc32)n1C.Cl` (stereo not drawn) showed a melting point of 123 °C.
As for “3-[3-(6-Methyl-1,2,3,4-tetrahydronaphth-2-ylmethylamino)propylmercapto]-4-methyl-5-phenyl-1,2,4(4H)-triazole [Example 14]”, at Cloned human D3-receptor, the “pKi (D3)” value is 7.82. Also, in data set [1], the “Selectivity (Ki(D2)/Ki(D3))” value worked out at 46.
In the case of `CCCN(CCCSc1nnc(-c2scnc2C)n1C)C1CCc2ccc(OC)cc2C1` (stereo not drawn) [Example 26, 3-[3-(N-(7-Methoxy-1,2,3,4-tetrahydronaphth-2-yl)-propylamino)propylmercapto]-4-methyl-5-(4-methyl-1,3-thiazol-5-yl)-1,2,4(4H)-triazole], at Cloned human D3-receptor (read-out: pKi (D3) (converted)), the Ki was 8.71e-09 M. Also, the “Selectivity (Ki(D2)/Ki(D3))” value in data set [1] was found to be 157.
Regarding `COc1cc2c(cc1OC)C(NCCCSc1nnc(-c3ccccc3)n1C)CC2.Cl` (stereo not drawn), the melting point was 201 to 202 °C.
Still for that read-out and setting: to `CCOC(=O)c1nnc(SCCCNC2Cc3ccccc3C2)n1C` (as salt: HCl) [Example 25, Ethyl-5-{[3-(indan-2-ylamino)propyl]mercapto}-4-methyl-1,2,4(4H)-triazole-3-carboxylate] belongs 135 to 139 °C.
Consider “3-[3-(N-(Indan-2-yl)propylamino)propylmercapto]-4-methyl-5-phenyl-1,2,4(4H)-triazole Fumarate [Example 1]”, for which the “pKi (D3)” value on Cloned human D3-receptor was 9.05. The “Selectivity (Ki(D2)/Ki(D3))” value in data set [1] was 71.
Regarding `Cc1ccc2c(c1)CCC(NCCCSc1nnc(-c3ccccc3)n1C)C2` (stereo not drawn) [Example 4, 3-[3-(6-Methyl-1,2,3,4-tetrahydronaphth-2-ylamino)propylmercapto]-4-methyl-5-phenyl-1,2,4(4H)-triazole], the melting point was in the range of 69 to 73 °C.
In the case of `COc1ccc2c(c1)CC(CCCNCCCSc1nnc(-c3ccccc3)n1C)CC2` (stereo not drawn) (as salt: HCl) [Example 18, 3-[3-(N-(7-Methoxy-1,2,3,4-tetrahydronaphth-2-yl)propylamino)propylmercapto]-4-methyl-5-phenyl-1,2,4(4H)-triazole], the melting point lay within 92 to 95 °C.
